This is an account of results in patent US7812172B2, “Thiazolothiazole derivative” (Fuji Xerox Co., Ltd., priority 2008, dated 2010).

Read-outs that look alike come from different tables or passages of the source.

The data set is described as follows: Evaluation of solubility of thiazolothiazole derivatives in organic solvents. Type of data set: physicochemical. The following applies: for solubility: organic solvent or mixture, thermodynamic from solid, 25° C., else heated to boiling temperature, naked eye. As to the method: In the present exemplary embodiment, the term “dissolve” refers to a state in which, after the thiazolothiazole derivative according to the present exemplary embodiment is added to an organic solvent, no crystal is observed by observation with the naked eye. The term “high solubility” or “good solubility” refers to such properties that the thiazolothiazole derivative dissolves at the boiling temperature of the organic solvent.
The solubility test is performed as follows:
10 mg (1.0 weight %) of an exemplary compound to be tested is dissolved in 1 ml of a solvent (such as dichlorobenzene, monochlorobenzene, chloroform, THF, toluene or xylene). […] The degree of dissolution is observed with the naked eye.
A: dissolves even when heating is not conducted
B: completely dissolves when heating is conducted
C: a large proportion thereof dissolves when heating is conducted
D: a small proportion thereof dissolves when heating is conducted

The mark [1] stands for this setting: 10 mg (1.0 weight %) in 1 ml THF, read-out: Solubility THF.
[2] abbreviates: 10 mg (1.0 weight %) in 1 ml chloroform, read-out: Solubility Chloroform.
Where [3] appears, read: 10 mg (1.0 weight %) in 1 ml dichlorobenzene, read-out: Solubility Dichlorobenzene.
Where [4] appears, read: 10 mg (1.0 weight %) in 1 ml monochlorobenzene, read-out: Solubility Monochlorobenzene.
The mark [5] stands for this setting: 10 mg (1.0 weight %) in 1 ml toluene, read-out: Solubility Toluene.
The mark [6] stands for this setting: 10 mg (1.0 weight %) in 1 ml xylene, read-out: Solubility Xylene.

Consider `c1csc(-c2ccc(-c3nc4sc(-c5ccc(-c6cccs6)s5)nc4s3)s2)c1` [Compound 3, reference compound], for which the solubility under setting [1] was < 10 mg/mL; the solubility under setting [2] is < 10 mg/mL; the solubility under setting [3] is < 10 mg/mL; the solubility under setting [4] is < 10 mg/mL; the solubility under setting [5] is < 10 mg/mL; the solubility under setting [6] is < 10 mg/mL. The “Solubility in organic solvents (in words)” value (organic solvents, general statement) was “hardly dissolves”.

As to `CCCCc1ccc(-c2ccc(-c3nc4sc(-c5ccc(-c6ccc(CCCC)cc6)s5)nc4s3)s2)cc1` [Exemplary Compound (1)], the solubility was < 10 mg/mL under setting [1]; < 10 mg/mL under setting [2]; < 10 mg/mL under setting [3]; < 10 mg/mL under setting [4]; < 10 mg/mL under setting [5]; < 10 mg/mL under setting [6].

In the case of `CCCCCCCCc1ccc(-c2cc(C)c(-c3nc4sc(-c5sc(-c6ccc(CCCCCCCC)cc6)cc5C)nc4s3)s2)cc1` [Exemplary Compound (8)], the solubility runs as follows: under setting [1], > 10 mg/mL; under setting [2], < 10 mg/mL; under setting [3], > 10 mg/mL; under setting [4], > 10 mg/mL; under setting [5], < 10 mg/mL; under setting [6], < 10 mg/mL.

For `CCCCOc1ccc(-c2ccc(-c3nc4sc(-c5ccc(-c6ccc(OCCCC)cc6)s5)nc4s3)s2)cc1` [Exemplary Compound (11)], the solubility under setting [1] is < 10 mg/mL; the solubility under setting [2] is < 10 mg/mL; the solubility under setting [3] was < 10 mg/mL; the solubility under setting [4] is < 10 mg/mL; the solubility under setting [5] is < 10 mg/mL; the solubility under setting [6] was < 10 mg/mL.

As to `CC(C)(C)c1ccc(-c2ccc(-c3nc4sc(-c5ccc(-c6ccc(C(C)(C)C)cc6)s5)nc4s3)s2)cc1` [Exemplary Compound (15)], the solubility is, setting by setting: under setting [1], < 10 mg/mL; under setting [2], < 10 mg/mL; under setting [3], < 10 mg/mL; under setting [4], < 10 mg/mL; under setting [5], < 10 mg/mL; under setting [6], < 10 mg/mL.

For `CCCCCCCCc1cc(-c2ccc(CCCC)cc2)sc1-c1nc2sc(-c3sc(-c4ccc(CCCC)cc4)cc3CCCCCCCC)nc2s1` [Exemplary Compound (25)], the solubility reads like this: under setting [1], > 10 mg/mL; under setting [2], > 10 mg/mL; under setting [3], > 10 mg/mL; under setting [4], > 10 mg/mL; under setting [5], > 10 mg/mL; under setting [6], > 10 mg/mL.

As for `CCCCCCCCc1ccc(-c2cc(CCCCCCCC)c(-c3nc4sc(-c5sc(-c6ccc(CCCCCCCC)cc6)cc5CCCCCCCC)nc4s3)s2)cc1` [Exemplary Compound (27)], the solubility is > 10 mg/mL under setting [1]; > 10 mg/mL under setting [2]; > 10 mg/mL under setting [3]; > 10 mg/mL under setting [4]; > 10 mg/mL under setting [5]; > 10 mg/mL under setting [6].

Regarding `CCCCCCCCCCCCc1ccc(-c2cc(CCCCCCCC)c(-c3nc4sc(-c5sc(-c6ccc(CCCCCCCCCCCC)cc6)cc5CCCCCCCC)nc4s3)s2)cc1` [Exemplary Compound (28)], the solubility is > 10 mg/mL under setting [1]; > 10 mg/mL under setting [2]; > 10 mg/mL under setting [3]; > 10 mg/mL under setting [4]; > 10 mg/mL under setting [5]; > 10 mg/mL under setting [6].
